Source: DBAASP
In brackets after ≈: the same amount, converted by molar mass. Several values for one entry are separate records, joined by “and”; a condition that tells them apart may be missing. Identical values can stand only once.

What was measured:
Assay in all cases: ≥ marks a high value that may be exact or a test limit, other limits are often not marked, values filed in µg/mL are converted to µM
[1] = tested on: Klebsiella pneumoniae ATCC 700603
[2] = tested on: Staphylococcus aureus ATCC 43300
[3] = tested on: Pseudomonas aeruginosa ATCC 27853
[4] = tested on: Candida albicans ATCC 90028
[5] = tested on: Cryptococcus neoformans ATCC 208821
[6] = tested on: Escherichia coli ATCC 25922
[7] = tested on: Acinetobacter baumannii ATCC 19606
[8] = tested on: Staphylococcus aureus ATCC 29213
Yersinia enterocolitica = tested on: Yersinia enterocolitica
[9] = tested on: Salmonella enterica subsp. enterica serovar Enteritidis
Escherichia coli = tested on: Escherichia coli
Salmonella sp. = tested on: Salmonella sp.
Staphylococcus aureus 75 = tested on: Staphylococcus aureus 75
[10] = tested on: Pseudomonas aeruginosa ATCC 9027
Escherichia coli 780 = tested on: Escherichia coli 780
[11] = tested on: Klebsiella pneumoniae ATCC 700603(GenR)
[12] = tested on: Klebsiella pneumoniae ATCC 700603(ImiR)
[13] = tested on: Klebsiella pneumoniae ATCC 700603(CipR)
[14] = tested on: Escherichia coli ATCC 25922(RifR)
[15] = tested on: Escherichia coli ATCC 25922(GenR)
[16] = tested on: Pseudomonas aeruginosa ATCC 27853(ImiR)
[17] = tested on: Pseudomonas aeruginosa ATCC 27853(GenR)
[18] = tested on: Klebsiella pneumoniae ATCC 700603(RifR)
[19] = tested on: Pseudomonas aeruginosa ATCC 27853(CipR)
[20] = tested on: Pseudomonas aeruginosa 50
[21] = tested on: Bacillus subtilis ATCC 23857
[22] = tested on: Staphylococcus epidermidis ATCC 12228
[23] = tested on: Acinetobacter baumannii ATCC 19606(ImiR)
[24] = tested on: Acinetobacter baumannii ATCC 19606(GenR)
[25] = tested on: Acinetobacter baumannii 9931
Escherichia coli 804 = tested on: Escherichia coli 804
[26] = tested on: Escherichia coli ATCC 25922(ImiR)
[27] = tested on: Acinetobacter baumannii ATCC 19606(CipR)
[28] = tested on: Staphylococcus aureus 113
[29] = tested on: Escherichia coli ATCC 25922(CipR)
[30] = tested on: Acinetobacter baumannii ATCC 19606(RifR)
[31] = tested on: Pseudomonas aeruginosa ATCC 27853(RifR)
[32] = tested on: Klebsiella pneumoniae KP2
[33] = tested on: Pseudomonas aeruginosa PAO1
[34] = tested on: Klebsiella pneumoniae KP1
[35] = tested on: Acinetobacter baumannii AB3
[36] = tested on: Staphylococcus aureus USA 100
[37] = tested on: Acinetobacter baumannii AB2
[38] = tested on: Pseudomonas aeruginosa TRPA 108
[39] = tested on: Staphylococcus aureus 4003
[40] = tested on: Klebsiella pneumoniae KP4
[41] = tested on: Pseudomonas aeruginosa TRPA 111
[42] = tested on: Acinetobacter baumannii AB1
[43] = tested on: Klebsiella pneumoniae KP3
[44] = tested on: Staphylococcus aureus USA 300

## NC(=O)CC[C@H](NC(=O)[C@H](CCCN=C(N)N)NC(=O)[C@H](CCCN=C(N)N)NC(=O)[C@H](CS)NC(=O)[C@H](CCC(N)=O)NC(=O)[C@H](Cc1cnc[nH]1)NC(=O)[C@H](CO)NC(=O)[C@H](CCCN=C(N)N)NC(=O)[C@H](Cc1ccccc1)NC(=O)[C@H](Cc1cnc[nH]1)NC(=O)[C@H](CCCN=C(N)N)NC(=O)[C@H](Cc1cnc[nH]1)NC(=O)[C@H](Cc1cnc[nH]1)NC(=O)[C@@H](N)CO)C(=O)N[C@@H](CCCN=C(N)N)C(=O)N[C@@H](CO)C(=O)N[C@@H](CC(N)=O)C(=O)N[C@@H](CO)C(=O)N[C@@H](CS)C(=O)N[C@@H](CC(=O)O)C(=O)N[C@@H](CCCN=C(N)N)C(=O)O [SHHRHFRSHQCRRQRSNSCDR]
[1]
  MIC: > 11.9 µM
[2]
  MIC: > 11.9 µM
[3]
  MIC: > 11.9 µM
[4]
  MIC: 11.9 µM (≈ 32 µg/mL)
[5]
  MIC: 1.49 µM (≈ 4 µg/mL)
[6]
  MIC: > 11.9 µM
[7]
  MIC: > 11.9 µM

## CC[C@H](C)[C@H](NC(=O)[C@H](CCCCN)NC(=O)[C@@H](N)CCCN=C(N)N)C(=O)N[C@@H](CCCN=C(N)N)C(=O)N[C@@H](CCCN=C(N)N)C(=O)N[C@@H](CCCCN)C(=O)N[C@@H](Cc1c[nH]c2ccccc12)C(=O)N[C@@H](CCCCN)C(=O)N[C@@H](CCCN=C(N)N)C(N)=O [RKIRRKWKR]
[8]
  MIC: > 37.7 µM
[2]
  MIC: > 37.7 µM
Yersinia enterocolitica
  MIC: ≥ 37.7 µM
[9]
  MIC: ≥ 37.7 µM
[6]
  MIC: > 37.7 µM
Escherichia coli
  MIC: > 37.7 µM
Salmonella sp.
  MIC: ≥ 37.7 µM

## NCCCC[C@H](NC(=O)[C@H](CCCN=C(N)N)NC(=O)[C@H](Cc1c[nH]c2ccccc12)NC(=O)[C@H](CCCCN)NC(=O)[C@H](CCCN=C(N)N)NC(=O)[C@H](Cc1c[nH]c2ccccc12)NC(=O)[C@H](CCCCN)NC(=O)[C@H](CCCN=C(N)N)NC(=O)[C@H](Cc1c[nH]c2ccccc12)NC(=O)[C@H](CCCCN)NC(=O)[C@H](CCCN=C(N)N)NC(=O)[C@@H](N)Cc1c[nH]c2ccccc12)C(N)=O [WRKWRKWRKWRK]
[8]
  MIC: 4 µM (≈ 7.6 µg/mL)
Staphylococcus aureus 75
  MIC: 4 µM (≈ 7.6 µg/mL)
[10]
  MIC: 4 µM (≈ 7.6 µg/mL)
[1]
  MIC: 16 µM (≈ 30.4 µg/mL)
Escherichia coli 780
  MIC: 8 µM (≈ 15.2 µg/mL)
[11]
  MIC: ≥ 32 µM
[12]
  MIC: 16 µM (≈ 30.4 µg/mL)
[13]
  MIC: ≥ 32 µM
[3]
  MIC: 4 µM (≈ 7.6 µg/mL)
[14]
  MIC: 16 µM (≈ 30.4 µg/mL)
[15]
  MIC: 8 µM (≈ 15.2 µg/mL)
[16]
  MIC: 8 µM (≈ 15.2 µg/mL)
[17]
  MIC: ≥ 32 µM
[18]
  MIC: 16 µM (≈ 30.4 µg/mL)
[19]
  MIC: 4 µM (≈ 7.6 µg/mL)
[20]
  MIC: 4 µM (≈ 7.6 µg/mL)
[21]
  MIC: 2 µM (≈ 3.8 µg/mL)
[22]
  MIC: 4 µM (≈ 7.6 µg/mL)
[23]
  MIC: 16 µM (≈ 30.4 µg/mL)
[24]
  MIC: 16 µM (≈ 30.4 µg/mL)
[25]
  MIC: 8 µM (≈ 15.2 µg/mL)
Escherichia coli 804
  MIC: 16 µM (≈ 30.4 µg/mL)
[26]
  MIC: 16 µM (≈ 30.4 µg/mL)
[7]
  MIC: 8 µM (≈ 15.2 µg/mL)
[27]
  MIC: 16 µM (≈ 30.4 µg/mL)
[28]
  MIC: 2 µM (≈ 3.8 µg/mL)
[29]
  MIC: 8 µM (≈ 15.2 µg/mL)
[30]
  MIC: 8 µM (≈ 15.2 µg/mL)
[31]
  MIC: 4 µM (≈ 7.6 µg/mL)

## CC(C)[C@H](NC(=O)[C@H](Cc1c[nH]c2ccccc12)NC(=O)[C@H](CCCN=C(N)N)NC(=O)[C@H](CCCN=C(N)N)NC(=O)[C@@H](NC(=O)[C@@H](NC(=O)[C@H](CCCN=C(N)N)NC(=O)[C@@H](NC(=O)[C@@H](NC(=O)[C@H](CCCN=C(N)N)NC(=O)[C@H](CCCN=C(N)N)NC(=O)[C@@H](NC(=O)[C@H](Cc1c[nH]c2ccccc12)NC(=O)[C@H](CCCN=C(N)N)NC(=O)[C@H](CCCN=C(N)N)NC(=O)[C@@H](NC(=O)[C@H](CCCN=C(N)N)NC(=O)[C@H](CCCN=C(N)N)NC(=O)[C@@H](NC(=O)[C@H](Cc1c[nH]c2ccccc12)NC(=O)[C@H](CCCN=C(N)N)NC(=O)[C@@H](N)CCCN=C(N)N)C(C)C)C(C)C)C(C)C)C(C)C)C(C)C)C(C)C)C(C)C)C(=O)N[C@@H](CCCN=C(N)N)C(=O)N[C@@H](CCCN=C(N)N)C(=O)O [RRWVRRVRRWVRRVVRVVRRWVRR]
[32]
  MIC: 9.41 µM (≈ 32 µg/mL)
[33]
  MIC: 1.76 µM and 3.5 µM
[34]
  MIC: 2.94 µM (≈ 10 µg/mL)
[35]
  MIC: 1.76 µM (≈ 6 µg/mL)
[36]
  MIC: 1.76 µM (≈ 6 µg/mL)
[37]
  MIC: 3.24 µM (≈ 11 µg/mL)
[38]
  MIC: 1.18 µM (≈ 4 µg/mL)
[39]
  MIC: 1.47 µM (≈ 5 µg/mL)
[40]
  MIC: 4.71 µM (≈ 16 µg/mL)
[41]
  MIC: 0.882 µM (≈ 3 µg/mL)
[42]
  MIC: 1.47 µM (≈ 5 µg/mL)
[43]
  MIC: 2.94 µM (≈ 10 µg/mL)
[44]
  MIC: 1.76 µM and 3.2 µM
